Patent publication US11840686B2, “Modulation of prekallikrein (PKK) expression” (Ionis Pharmaceuticals, Inc., priority 2013, dated 2023)
Strand notation (5' to 3'): a small letter for the sugar, then the base; units joined by * are phosphorothioate-linked, units joined directly phosphodiester-linked; [ ] holds rarer units or linkages, { } end groups; capitals alone tell only the bases. e = 2'-O-(2-methoxyethyl) (MOE); [5mC] = 5-methylcytosine; d = 2'-deoxy (DNA)

Tested on: human PKK mRNA
Assay: Antisense inhibition of human PKK mRNA in HepaRG cells, 5,000 nM (Example 2)
Type: cell-based
How it was run: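 HepaRG cells, 20,000 per well, were electroporated with 5,000 nM MOE gapmer (phosphorothioate, 5-methylcytosine) and incubated about 24 hours. PKK mRNA was quantified by qRT-PCR with primer probe set RTS3454, normalized to RIBOGREEN total RNA, and expressed as percent inhibition versus untreated controls.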

[1] = human PKK mRNA in HepaRG cells, 5-10-5 gapmers, Table 14
[2] = HepaRG cells, 5,000 nM antisense oligonucleotide, 5-10-5 gapmers, Table 16
[3] = HepaRG cells, electroporation, 5,000 nM antisense oligonucleotide, approx. 24 hours, primer probe set RTS3454, relative to untreated control cells, Table 11
[4] = Table 7, HepaRG cells, electroporation with 5,000 nM antisense oligonucleotide, approx. 24 hours, PKK mRNA by RT-PCR (RTS3454), relative to untreated control cells
[5] = HepaRG cells, electroporation with 5,000 nM antisense oligonucleotide, approximately 24 hours, PKK mRNA by RT-PCR (RTS3454), relative to untreated control cells, Table 5 experiment
[6] = HepaRG cells, electroporation, 5,000 nM antisense oligonucleotide, approx. 24 hours, primer probe set RTS3454, relative to untreated control cells, Table 12
[7] = Table 9 experiment, HepaRG cells, 20,000 cells per well, electroporation with 5,000 nM antisense oligonucleotide, approx. 24 hours, PKK mRNA by RT-PCR (RTS3454), relative to untreated control cells
[8] = Table 10 experiment, HepaRG cells, 20,000 cells per well, electroporation with 5,000 nM antisense oligonucleotide, approx. 24 hours, PKK mRNA by RT-PCR (RTS3454), relative to untreated control cells
[9] = Table 8, HepaRG cells, electroporation with 5,000 nM antisense oligonucleotide, approx. 24 hours, PKK mRNA by RT-PCR (RTS3454), relative to untreated control cells
[10] = HepaRG cells, electroporation with 5,000 nM antisense oligonucleotide, approximately 24 hours, PKK mRNA by RT-PCR (RTS3454), relative to untreated control cells, Table 6 experiment
[11] = human PKK mRNA, HepaRG cells, 5-10-5 motif oligonucleotides targeting SEQ ID NO: 1 and 10
[12] = Table 13, human PKK mRNA in HepaRG cells, 5-10-5 gapmers

Substance: 547609 (antisense e[5mC]*eT*eA*eT*eA*dA*d[5mC]*dA*dA*dT*dA*dT*d[5mC]*dA*d[5mC]*eT*eG*eT*eA*e[5mC]) [compound 547609]
- % inhibition [1]: 23%

Substance: 547682 (antisense e[5mC]*eA*eA*eT*eA*dT*d[5mC]*dA*d[5mC]*dT*dG*dT*dA*d[5mC]*d[5mC]*eT*eA*eT*eA*eT) [compound 547682]
- % inhibition [2]: 20%

Substance: 547506 (antisense eA*eG*eG*e[5mC]*eT*d[5mC]*dA*dG*dA*dA*dT*dT*dT*dG*dA*e[5mC]*eT*eT*eG*eA) [compound 547506]
- % inhibition [3]: 78%

Substance: 546578 (eG*eA*e[5mC]*eA*eG*dT*dG*dG*dG*d[5mC]*d[5mC]*dA*dG*dA*dG*e[5mC]*e[5mC]*eT*eT*eG; antisense) [compound 546578]
- % inhibition [2]: 73%

Substance: 547387 (eT*eG*eG*eT*eG*dT*dT*dT*dT*d[5mC]*dT*dT*dG*dA*dG*eG*eA*eG*eT*eA; antisense) [compound 547387]
- % inhibition [4]: 73%

Substance: 546148 (e[5mC]*eG*eT*eT*eT*dT*d[5mC]*dA*dT*dA*dG*dA*dG*dT*dT*eG*eA*eG*eT*e[5mC]; antisense) [compound 546148]
- % inhibition [5]: 68%

Substance: 547543 (antisense eT*eT*eT*eT*e[5mC]*d[5mC]*dA*dT*dG*d[5mC]*dA*dT*dA*d[5mC]*dT*e[5mC]*eG*e[5mC]*e[5mC]*eT) [compound 547543]
- % inhibition [6]: 54%

Substance: 546496 (eA*eT*eG*e[5mC]*eA*dT*dA*d[5mC]*dT*d[5mC]*dG*d[5mC]*d[5mC]*dT*dT*eT*eG*eT*eG*eA; antisense) [compound 546496]
- % inhibition [6]: 54%

Substance: 546390 (eG*eT*e[5mC]*eA*eG*d[5mC]*d[5mC]*d[5mC]*d[5mC]*dT*dG*dG*dT*dT*dA*e[5mC]*eG*eG*e[5mC]*eG; antisense) [compound 546390]
- % inhibition [3]: 70%

Substance: 547016 (eG*eT*eA*eG*eG*dT*dG*dG*dT*dG*dG*dG*dA*dT*dT*eG*eG*eT*eG*eG; antisense) [compound 547016]
- % inhibition (HepaRG cells, 5,000 nM antisense oligonucleotide, 5-10-5 gapmers, Table 17): 62%

Substance: 546319 (antisense e[5mC]*eA*eG*eT*eG*dT*dA*dA*dT*dT*d[5mC]*dA*dA*dA*dG*eG*eA*eG*e[5mC]*e[5mC]) [compound 546319]
- % inhibition [7]: 50%
- % inhibition [8]: 61%

Substance: 546857 (eT*eA*eT*eA*eA*d[5mC]*dT*dA*dT*dA*dA*d[5mC]*dA*dG*dT*eA*eT*e[5mC]*eA*e[5mC]; antisense) [compound 546857]
- % inhibition [1]: 7%

Substance: 547418 (e[5mC]*eA*e[5mC]*eT*eT*dA*d[5mC]*dA*d[5mC]*dT*dT*d[5mC]*dT*d[5mC]*dT*eT*e[5mC]*e[5mC]*eT*eT; antisense) [compound 547418]
- % inhibition [9]: 0%

Substance: 546193 (antisense e[5mC]*eA*eT*eT*eA*dA*dA*dA*dT*dT*dG*dA*d[5mC]*dT*d[5mC]*e[5mC]*eT*e[5mC]*eT*e[5mC]) [compound 546193]
- % inhibition [10]: 57%

Substance: 547641 (e[5mC]*eT*eG*eT*e[5mC]*d[5mC]*dT*dA*dT*dA*dA*d[5mC]*dT*dA*dT*eA*eA*e[5mC]*eA*eG; antisense) [compound 547641]
- % inhibition [11]: 43%

Substance: 547610 (antisense eT*eG*eT*eA*eA*d[5mC]*dA*dG*dT*dA*dT*d[5mC]*dA*d[5mC]*dT*eG*eT*eA*e[5mC]*eT) [compound 547610]
- % inhibition [1]: 45%

Substance: 547437 (antisense e[5mC]*eT*e[5mC]*eT*e[5mC]*d[5mC]*d[5mC]*d[5mC]*dA*dA*dG*dA*dA*dG*dA*eG*eT*eT*eT*eG) [compound 547437]
- % inhibition [9]: 50%

Substance: 547611 (antisense e[5mC]*eT*eG*eT*eA*dA*d[5mC]*dA*dG*dT*dA*dT*d[5mC]*dA*d[5mC]*eT*eG*eT*eA*e[5mC]) [compound 547611]
- % inhibition [1]: 71%

Substance: 546926 (eG*e[5mC]*e[5mC]*eA*eT*d[5mC]*d[5mC]*dA*dG*dG*dG*dT*dG*d[5mC]*dT*e[5mC]*eT*e[5mC]*e[5mC]*e[5mC]; antisense) [compound 546926]
- % inhibition [2]: 81%

Substance: 547468 (antisense eG*eT*eT*eG*eG*dT*dA*dT*dA*dA*dA*dT*dT*dG*dT*eG*e[5mC]*eT*eT*eG) [compound 547468]
- % inhibition [7]: 61%
- % inhibition [8]: 46%

Substance: 546700 (eT*eG*eG*eT*eT*d[5mC]*d[5mC]*d[5mC]*dT*dA*dG*d[5mC]*dG*dG*dT*e[5mC]*e[5mC]*eA*eG*eA; antisense) [compound 546700]
- % inhibition [6]: 78%

Substance: 547503 (antisense eA*e[5mC]*eT*e[5mC]*eA*dG*dG*dT*dT*dG*dT*dA*dA*dA*dA*eA*eT*eT*eG*e[5mC]) [compound 547503]
- % inhibition [3]: 66%

Substance: 547671 (e[5mC]*eT*eA*e[5mC]*eA*dA*d[5mC]*dT*dA*dT*dA*dA*d[5mC]*dA*dG*eT*eA*eT*e[5mC]*eA; antisense) [compound 547671]
- % inhibition [11]: 0%

Substance: 546238 (e[5mC]*eT*eT*eT*eT*dG*d[5mC]*dA*dG*dG*dT*dT*dA*dA*dA*eA*eG*eG*e[5mC]*eT; antisense) [compound 546238]
- % inhibition [4]: 63%

Substance: 546836 (eA*eT*eA*eA*e[5mC]*dT*d[5mC]*dT*dA*dA*d[5mC]*dA*dG*dT*dA*eT*e[5mC]*eA*e[5mC]*eT; antisense) [compound 546836]
- % inhibition [12]: 30%

Substance: 547355 (e[5mC]*eA*eA*eT*eT*dG*dT*dT*d[5mC]*d[5mC]*dG*dG*dT*dA*d[5mC]*eT*e[5mC]*eT*eG*e[5mC]; antisense) [compound 547355]
- % inhibition [10]: 77%

Substance: 547502 (antisense eT*e[5mC]*eA*eG*eG*dT*dT*dG*dT*dA*dA*dA*dA*dA*dT*eT*eG*e[5mC]*e[5mC]*eT) [compound 547502]
- % inhibition [3]: 64%

Substance: 547411 (e[5mC]*eA*eT*e[5mC]*eT*dT*dT*dG*dT*dG*d[5mC]*dA*dA*dG*dT*e[5mC]*eT*e[5mC]*eT*eT; antisense) [compound 547411]
- % inhibition [9]: 79%

Substance: 546823 (eT*eA*e[5mC]*eT*eA*dG*dT*dT*dT*d[5mC]*d[5mC]*dT*dA*dT*dA*eA*e[5mC]*eT*eG*e[5mC]; antisense) [compound 546823]
- % inhibition [12]: 44%

Substance: 546147 (eT*e[5mC]*eA*eT*eA*dG*dA*dG*dT*dT*dG*dA*dG*dT*d[5mC]*eA*eG*eA*e[5mC]*eA; antisense) [compound 546147]
- % inhibition [5]: 76%

Substance: 548730 (DNA eT*eG*eT*eA*d[5mC]*dT*dA*dG*dT*dT*dT*d[5mC]*d[5mC]*dT*eA*eT*eA; antisense) [compound 548730]
- % inhibition (human PKK mRNA, HepaRG cells, 5,000 nM antisense oligonucleotide, Table 18): 0%

Substance: 546459 (eG*eT*eA*eG*e[5mC]*d[5mC]*dA*dT*dA*d[5mC]*dA*dT*d[5mC]*dT*dG*eA*eG*eG*eA*eA; antisense) [compound 546459]
- % inhibition [6]: 46%

Substance: 547639 (eG*eT*e[5mC]*e[5mC]*eT*dA*dT*dA*dA*d[5mC]*dT*dA*dT*dA*dA*e[5mC]*eA*eG*eT*eA; antisense) [compound 547639]
- % inhibition [11]: 72%

Substance: 547662 (eA*e[5mC]*e[5mC]*eT*eA*dT*dA*dA*d[5mC]*dT*dA*dT*dA*dA*d[5mC]*eA*eG*eT*eA*eT; antisense) [compound 547662]
- % inhibition [11]: 0%
